Data: patent US6054437A, “Method for inducing death of neoplastic cells using piperazine derivatives” (Hitachi Chemical Research Center, Inc., priority 1997, dated 2000)
“Also recorded” adds a separate entry of the source. Where a name gives a salt, the structure may show the parent alone.

Experiments:
[1] = system: melanoma cell lines B16F10 and SK-Mel-2; test: Cancer cell death assay (LDH release), melanoma lines; assay type: cell-based, mouse (B16F10); human (SK-Mel-2); settings: compound alone, 24 hours
Method: FIG. 2 is a graph showing the relationship between LDH released and the concentration of NCO-700 in cancer cell death assays of melanoma cell lines B16F10 (mouse line) and SK-Mel-2 (human line).
(§1) 1. Cancer Cell Death Assay
(§2) Cell death was measured quantitatively by the release of a marker intracellular enzyme, lactate dehydrogenase (LDH), from damaged or killed cells. LDH released into the extracellular fluid, was measured 24 hours after drug exposure to cancer cells and the enzyme activity was determined by the method of Decker et al. (J. Immunolog Methods 15:61-99, 1988).
(§3) All cell lines used in the present study were obtained from the American Type Tissue Culture Laboratory and cultured according to their specifications. All were human cancer lines unless otherwise noted. The following cell lines and their tissue of origin used in our studies were:
(§4) The first assays performed measured the anti-neoplastic activity of NCO-700, alone, in cell death assays of a wide variety of human cancer cells. The results of these experiments are shown in FIGS. 1-6, where a dose-response curve of NCO-700 versus % LDH release is plotted, with higher values of LDH released indicating greater anti-neoplastic activity (apoptosis).

[2] = system: colon cancer cell lines; test: Cancer cell death assay (LDH release), colon lines; assay type: cell-based, human; settings: compound alone, 24 hours
Method: as §1, §2, §3, §4
In FIG. 8, a dose-response curve is shown of the effect of TOP-008 on the killing of breast, prostate and colon cell lines.

[3] = system: LS-174T (colon); test: Cancer cell survival assay, LS-174T; assay type: cell-based, human; settings: seven days, alone
Method: (§5) Cell survival was assayed in cultured tumor cells. From 500-1000 cells per well were plated in 24-welled culture dishes and exposed to drug for seven days. After drug exposure, a computerized cell imaging technique was utilized to ascertain the number of viable cells remaining in each culture. From the data, survival curves were plotted and a ED50 (drug concentration that permits 50% cell survival) were calculated.
(§6) The cancer cell survival assay is an important additional in vitro assay to assess the anti-neoplastic activity of compounds as the cells are given a prolonged exposure (seven days) to the drug. FIGS. 9-16 show the effect of increasing the dose of NCO-700 on the survival of a number of cancer cell lines. […] In the figures, the vertical axis is the object area, which is the number of surviving cancer cells calculated by a computer.

[4] = system: DU-145 (prostate); test: Cancer cell survival assay, DU-145; assay type: cell-based, human; settings: DU-145, seven days, alone
Method: as §5, §6

[5] = system: KB-3 (sensitive); test: Cell survival assay with vinblastine, sensitive cells; assay type: cell-based, human
Method: where the effect of NCO-700 to enhance cancer cell killing by vinblastine was measured.
In the first two in vitro assays, the drug accumulation assay and the cell survival assay, a human pharyngeal carcinoma cell line (KB-V-1) which is highly resistant to anticancer drugs was used. This cell line was developed by Drs. Ira Pastan and Michael Gottesman of the National Cancer Institute, by step-wise selection in colchicine of drug-resistant cells. The control cancer cell line (KB-3), from which the resistant cell lines were derived, is sensitive to anticancer drugs. The resistant KB-V-1 cell line is approximately 275 times more resistant to vinblastine than the sensitive KB-3 line and has a greatly amplified mdr gene which generates the observed resistance.
The cell survival experiments shown above were performed by plating KB-3 (sensitive) and KB-V-1 (resistant) cells in 32 mm well plastic dishes at a cell density of 300-500 cells per well. Vinblastine and NCO-700 were added 16 hours after the initial cell plating. After 10 days of incubation at 37°, cell colonies were stained and counted.

[6] = system: kidney tumor cells; test: Human tumor biopsy assay, kidney tumor; assay type: cell-based; settings: 20 μM NCO-700 and 0.5 mg/ml adriamycin, 1 hour
Method: (§7) 4. Human Tumor Biopsy Assays
(§8) where the effect of NCO-700 to enhance killing, by either vinblastine or adriamycin, of cancer cells cultured directly from patient's tumors (Von Hoff et al., Cancer Res. 43:1926-1931, 1983).
(§9) For the tumor biopsy assay, primary cell cultures were propagated directly from tumor specimens removed from patients. The cells were grown in suspension culture, treated with adriamycin or vinblastine plus NCO-700, and plated onto soft agar and incubated for two weeks before cell survival was determined.
(§10) In a final series of experiments, the effect of NCO-700 on survival of cells cultured directly from biopsied patient tumors was performed. This technique, referred to as a human tumor cloning system, was developed by Von Hoff and associates (Von Hoff et al., Cancer Res. 43:1926-1931, 1983) and was used clinically to predict the course of chemotherapy for these patients. In this method, tumor biopsies were separated into cell suspensions and treated for 1 hour with either 0.4 mg/ml vinblastine (VLB) or 0.5 mg/ml adriamycin (ADR) plus or minus 20 μM NCO-700. The cell suspensions were washed after one hour of incubation and plated with soft agar. After 14 days of incubation at 37°, the percent of colonies surviving was scored. […] In particular, the survival of tumor cells decreased to approximately 1/2 to 1/3 after exposure to NCO-700 and adriamycin. […]

[7] = system: ovarian tumor cells; test: Human tumor biopsy assay, ovarian tumor; assay type: cell-based; settings: 20 μM NCO-700 and 0.4 mg/ml vinblastine, 1 hour
Method: as §7, §8, §9, §10

[8] = system: human tumor cells; test: Human tumor biopsy assay, tumors in general; assay type: cell-based; settings: 20 μM NCO-700 plus vinblastine or adriamycin
Method: as §7, §8, §9, §10

SMILES: CCOC(=O)[C@@H]1O[C@H]1C(=O)N[C@@H](CC(C)C)C(=O)N1CCN(Cc2ccc(OC)c(OC)c2OC)CC1 [NCO-700, Bis[ethyl (2R,3R)-3-[(S)-3-methyl-1-[4-(2,3,4-trimethoxyphenylmethyl)piperazin-1-ylcarbonyl]butylcarbamoyl]oxirane-2-carboxylate] Sulfate]
- anti-neoplastic activity (LDH release) [1]: all cells lines showed sensitivity to NCO-700
- anti-neoplastic activity (LDH release) [2]: partly responsive
- anti-neoplastic activity (cell survival) [3]: significant anti-neoplastic activity
- anti-neoplastic activity (cell survival) [4]: significant anti-neoplastic activity
- IC50 ([5]; Homo sapiens, KB-3, + 25 μM NCO-700, read-out: vinblastine to kill 50% of cells): 1.6 ng/mL
- enhancement of killing by vinblastine ([5]; sensitive KB-3 cells): slight enhancement of the killing of sensitive KB-3 cells
- survival of tumor cells decreased to (fraction) [6]: approximately 1/4
- survival of tumor cells decreased to (fraction) [7]: approximately 1/3
- activity in inhibiting survival / sensitizing human tumor cells [8]: significant activity in inhibiting the survival of certain human tumor cells; also recorded: excellent activity in sensitizing to anticancer drugs
- response of all other tumors [8]: varying degrees of positive response
